This passage reports IC50 results from patent publication US11034725B2, “Compositions and methods for treating cardiovascular disease” (Genentech, Inc., priority 2016, dated 2021).

Where two headings read alike, the source gives them in different places. Numbered stars: 1 amine (or outer) side, 2 acyl side, 3 side chain; on linkers, the order of the positions; unused ones are H or OH. Bridge positions count the residues as written; N and C are the ends. Square brackets hold non-standard residues; d marks the D form. Peptide text beside a SMILES is read from it. * marks the point of attachment. Propanoyl(3-(3-pyridyl)) = O=C(CCc1cccnc1)*; Desaminohistidyl = O=C(CCc1c[nH]cn1)*; X21 = O=C([C@@H]1C[C@@H]1c1cccnc1)*; X44 = Cn1cc([C@H]2C[C@H]2C(=O)*)cn1; X5 = Cn1cc([C@@H]2C[C@H]2C(=O)*)cn1; X14 = O=C(CC1CCN([*:1])CC1)[*:2]; hArg = N=C(N)NCCCC[C@H](N)C(=O)O; X24 = CN1CCC(n2cc(C(=O)*)cn2)C1; X3 = O=C(CC1CCN(Cc2ccccn2)CC1)*; X13 = O=C(CCN1CCS(=O)(=O)CC1)*; X34 = NC(=O)N1CCN(CCC(=O)*)CC1; X8 = O=C(c1ccc(N2CCOCC2)nc1)*; X38 = O=C(CC1CCS(=O)(=O)C1)*; X19 = Cc1cc(C)n(CCC(=O)*)n1; X33 = CN1CCN(CCC(=O)*)CC1; X26 = O=C1CCCN1CCC(=O)*; X32 = O=C(CCN1CCOCC1)*; X23 = NC(=O)NCCC(=O)*; X41 = O=C(CCn1cncn1)*; Ms = CS(=O)(=O)* Where only a bound is given, the exact number is not on record here.

Experiment [1] addresses T1, PCSK9Δhelix (Homo sapiens, UniProt Q8NBP7).
T1 construct: Human PCSK9 construct M1-Q692 with an engineered TEV site (residue deletion Y166, R167); made in house; host or cells: CHO
Kind of experiment: PCSK9Δhelix/Ab20 TR-FRET binding assay. The following applies: TR-FRET, read-out: PCSK9Δhelix/Ab20 IC50. In general terms: In TR-FRET formats the signal depends on donor and acceptor labels being close together.

For experiment [2], the target named is PCSK9 (Homo sapiens, UniProt Q8NBP7). Nature of the experiment: PCSK9/EGF(A) TR-FRET binding assay. The following applies: TR-FRET; Table 8E, additional compounds; read-out: PCSK9/EGF(A) IC50.
The mark [3] stands for this setting: Table 8D, disulfide-cyclized extension peptides.

PCSK9, sequence (Q8NBP7 153-692): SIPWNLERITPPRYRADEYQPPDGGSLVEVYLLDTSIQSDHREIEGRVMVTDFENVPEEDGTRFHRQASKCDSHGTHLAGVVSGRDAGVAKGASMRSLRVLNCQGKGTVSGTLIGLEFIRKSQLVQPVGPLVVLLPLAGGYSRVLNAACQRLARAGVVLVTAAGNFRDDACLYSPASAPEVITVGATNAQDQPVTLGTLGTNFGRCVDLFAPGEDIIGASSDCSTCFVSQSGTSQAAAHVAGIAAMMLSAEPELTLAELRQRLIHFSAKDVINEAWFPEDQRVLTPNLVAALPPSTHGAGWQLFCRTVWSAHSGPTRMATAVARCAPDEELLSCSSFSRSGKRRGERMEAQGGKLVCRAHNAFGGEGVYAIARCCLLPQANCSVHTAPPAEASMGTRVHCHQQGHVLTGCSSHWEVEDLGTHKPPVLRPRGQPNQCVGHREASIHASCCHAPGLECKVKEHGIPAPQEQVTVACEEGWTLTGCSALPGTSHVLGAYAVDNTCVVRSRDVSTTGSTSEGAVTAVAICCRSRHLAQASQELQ
PCSK9, sequence (Q8NBP7 31-152 partner limits assumed): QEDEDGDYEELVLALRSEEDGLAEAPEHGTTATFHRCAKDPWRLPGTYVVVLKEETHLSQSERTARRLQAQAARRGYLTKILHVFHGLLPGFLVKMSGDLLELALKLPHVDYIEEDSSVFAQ
T1 sequence (Q8NBP7 with tags, fused parts or gaps limits assumed): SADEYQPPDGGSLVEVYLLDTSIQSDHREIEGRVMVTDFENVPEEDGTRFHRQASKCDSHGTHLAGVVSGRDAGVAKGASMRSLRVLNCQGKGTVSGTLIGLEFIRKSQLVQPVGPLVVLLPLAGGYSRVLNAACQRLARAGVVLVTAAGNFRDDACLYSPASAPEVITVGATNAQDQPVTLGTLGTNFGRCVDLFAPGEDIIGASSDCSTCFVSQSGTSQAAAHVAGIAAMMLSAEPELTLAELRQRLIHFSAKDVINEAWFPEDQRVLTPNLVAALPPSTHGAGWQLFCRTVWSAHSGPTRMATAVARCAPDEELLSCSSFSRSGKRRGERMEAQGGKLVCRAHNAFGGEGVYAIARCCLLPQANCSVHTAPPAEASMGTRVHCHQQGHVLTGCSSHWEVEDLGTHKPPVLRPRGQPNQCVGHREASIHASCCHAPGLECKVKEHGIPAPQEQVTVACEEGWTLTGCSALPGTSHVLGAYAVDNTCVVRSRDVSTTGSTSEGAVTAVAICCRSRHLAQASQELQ
T1 sequence (Q8NBP7 31-152 partner limits assumed): as the sequence (Q8NBP7 31-152 partner limits assumed) above

For `CC[C@H](C)[C@@H]1NC(=O)[C@H](CCCNC(=N)N)NC(=O)[C@H](CCCCN)NC(=O)[C@H](CC(C)C)NC(=O)[C@H](CC(N)=O)NC(=O)[C@H](Cc2c[nH]c3ccccc23)NC(=O)[C@H](CC(C)C)NC(=O)[C@@H](NC(=O)[C@@H](N)Cc2c[nH]c3ccccc23)CSSC[C@@H](C(=O)N[C@@H](Cc2c[nH]c3ccccc23)C(=O)N[C@@H](Cc2ccccc2)C(=O)O)NC(=O)[C@H](CCC(N)=O)NC(=O)[C@H](CO)NC(=O)CNC1=O` [Compound 66] (H-WCLWNLKRIGSQCWF-OH; disulfide 2-13), the IC50 in experiment [1] (setting [3]) was 12 µM. Still for that read-out and setting: next, `CC[C@H](C)[C@@H]1NC(=O)[C@H](CCCNC(=N)N)NC(=O)[C@H](CCCCN)NC(=O)[C@H](CC(C)C)NC(=O)[C@H](CC(N)=O)NC(=O)[C@H](Cc2c[nH]c3ccccc23)NC(=O)[C@H](CC(C)C)NC(=O)[C@@H](NC(=O)[C@H](Cc2c[nH]c3ccccc23)NC(C)=O)CSSC[C@@H](C(=O)N[C@@H](Cc2c[nH]c3ccccc23)C(=O)N[C@@H](Cc2ccccc2)C(=O)O)NC(=O)[C@H](CCC(N)=O)NC(=O)[C@H](CO)NC(=O)CNC1=O` [Compound 90] (Ac-WCLWNLKRIGSQCWF-OH; disulfide 2-13): 7.38 µM.

Regarding `CC[C@H](C)[C@H](NC(=O)[C@H](CCCNC(=N)N)NC(=O)[C@@H](NC(=O)[C@H](CC(C)C)NC(=O)[C@H](CC(N)=O)NC(=O)[C@H](Cc1c[nH]c2ccccc12)NC(=O)CCN1CCS(=O)(=O)CC1)C(C)C)C(=O)NCC(=O)N[C@@H](CC(C)C)C(=O)N[C@@H](CC(C)C)C(=O)N[C@@H](CCCNC(=N)N)C(N)=O` [Compound 126] (X13-WNLVRIGLLR-NH2), the IC50 in experiment [2] was not below 50 µM; in experiment [1] (Table 8E, additional compounds) it was 19 µM. For the compound `CC[C@H](C)[C@H](NC(=O)[C@H](CCCNC(=N)N)NC(=O)[C@@H](NC(=O)[C@H](CC(C)C)NC(=O)[C@H](CC(N)=O)NC(=O)[C@H](Cc1c[nH]c2ccccc12)NC(=O)[C@@H]1C[C@H]1c1cnn(C)c1)C(C)C)C(=O)NCC(=O)N[C@@H](CC(C)C)C(=O)N[C@@H](CC(C)C)C(=O)N[C@@H](CCCNC(=N)N)C(N)=O` [Compound 127] (X5-WNLVRIGLLR-NH2), the IC50 in experiment [2] was not below 50 µM; in experiment [1] (Table 8E, additional compounds), 29 µM. The matching figures for `CC[C@H](C)[C@H](NC(=O)[C@H](CCCNC(=N)N)NC(=O)[C@@H](NC(=O)[C@H](CC(C)C)NC(=O)[C@H](CC(N)=O)NC(=O)[C@H](Cc1c[nH]c2ccccc12)NC(=O)CCN1CCCC1=O)C(C)C)C(=O)NCC(=O)N[C@@H](CC(C)C)C(=O)N[C@@H](CC(C)C)C(=O)N[C@@H](CCCNC(=N)N)C(N)=O` [Compound 128] (X26-WNLVRIGLLR-NH2): not below 50 µM and 7.5 µM. The matching figures for `CC[C@H](C)[C@H](NC(=O)[C@H](CCCNC(=N)N)NC(=O)[C@@H](NC(=O)[C@H](CC(C)C)NC(=O)[C@H](CC(N)=O)NC(=O)[C@H](Cc1c[nH]c2ccccc12)NC(=O)c1cnn(C2CCN(C)C2)c1)C(C)C)C(=O)NCC(=O)N[C@@H](CC(C)C)C(=O)N[C@@H](CC(C)C)C(=O)N[C@@H](CCCNC(=N)N)C(N)=O` (stereo partly shown) [Compound 129] (X24-WNLVRIGLLR-NH2): not below 50 µM and 23 µM. For `CC[C@H](C)[C@H](NC(=O)[C@H](CCCNC(=N)N)NC(=O)[C@@H](NC(=O)[C@H](CC(C)C)NC(=O)[C@H](CC(N)=O)NC(=O)[C@H](Cc1c[nH]c2ccccc12)NC(=O)CC1CCN(Cc2ccccn2)CC1)C(C)C)C(=O)NCC(=O)N[C@@H](CC(C)C)C(=O)N[C@@H](CC(C)C)C(=O)N[C@@H](CCCNC(=N)N)C(N)=O` [Compound 130] (X3-WNLVRIGLLR-NH2), the IC50 is not below 50 µM in experiment [2] and 8.6 µM in experiment [1] (Table 8E, additional compounds).

Take `CC[C@H](C)[C@H](NC(=O)[C@H](CCCNC(=N)N)NC(=O)[C@@H](NC(=O)[C@H](CC(C)C)NC(=O)[C@H](CC(N)=O)NC(=O)[C@H](Cc1c[nH]c2ccccc12)NC(=O)CCN1CCN(C(N)=O)CC1)C(C)C)C(=O)NCC(=O)N[C@@H](CC(C)C)C(=O)N[C@@H](CC(C)C)C(=O)N[C@@H](CCCNC(=N)N)C(N)=O` [Compound 131] (X34-WNLVRIGLLR-NH2): the IC50 in experiment [2] is not below 50 µM; in experiment [1] (Table 8E, additional compounds), 6.7 µM. For `CC[C@H](C)[C@H](NC(=O)[C@H](CCCNC(=N)N)NC(=O)[C@@H](NC(=O)[C@H](CC(C)C)NC(=O)[C@H](CC(N)=O)NC(=O)[C@H](Cc1c[nH]c2ccccc12)NC(=O)CCc1c[nH]cn1)C(C)C)C(=O)NCC(=O)N[C@@H](CC(C)C)C(=O)N[C@@H](CC(C)C)C(=O)N[C@@H](CCCNC(=N)N)C(N)=O` [Compound 132] (Desaminohistidyl-WNLVRIGLLR-NH2) the same measures were not below 50 µM and 9 µM. The matching figures for `CC[C@H](C)[C@H](NC(=O)[C@H](CCCNC(=N)N)NC(=O)[C@@H](NC(=O)[C@H](CC(C)C)NC(=O)[C@H](CC(N)=O)NC(=O)[C@H](Cc1c[nH]c2ccccc12)NC(=O)CC1CCN(S(C)(=O)=O)CC1)C(C)C)C(=O)NCC(=O)N[C@@H](CC(C)C)C(=O)N[C@@H](CC(C)C)C(=O)N[C@@H](CCCNC(=N)N)C(N)=O` [Compound 133] (Ms-[X14]WNLVRIGLLR-NH2): not below 50 µM and 17 µM. As to `CC[C@H](C)[C@H](NC(=O)[C@H](CCCNC(=N)N)NC(=O)[C@@H](NC(=O)[C@H](CC(C)C)NC(=O)[C@H](CC(N)=O)NC(=O)[C@H](Cc1c[nH]c2ccccc12)NC(=O)c1ccc(N2CCOCC2)nc1)C(C)C)C(=O)NCC(=O)N[C@@H](CC(C)C)C(=O)N[C@@H](CC(C)C)C(=O)N[C@@H](CCCNC(=N)N)C(N)=O` [Compound 134] (X8-WNLVRIGLLR-NH2), the IC50 in experiment [2] was not below 50 µM; in experiment [1] (Table 8E, additional compounds), 4.2 µM.

As for `CC[C@H](C)[C@H](NC(=O)[C@H](CCCNC(=N)N)NC(=O)[C@@H](NC(=O)[C@H](CC(C)C)NC(=O)[C@H](CC(N)=O)NC(=O)[C@H](Cc1c[nH]c2ccccc12)NC(=O)[C@@H]1C[C@@H]1c1cnn(C)c1)C(C)C)C(=O)NCC(=O)N[C@@H](CC(C)C)C(=O)N[C@@H](CC(C)C)C(=O)N[C@@H](CCCNC(=N)N)C(N)=O` [Compound 135] (X44-WNLVRIGLLR-NH2), the IC50 was not below 50 µM in experiment [2] and 10 µM in experiment [1] (Table 8E, additional compounds). The matching figures for `CC[C@H](C)[C@H](NC(=O)[C@H](CCCNC(=N)N)NC(=O)[C@@H](NC(=O)[C@H](CC(C)C)NC(=O)[C@H](CC(N)=O)NC(=O)[C@H](Cc1c[nH]c2ccccc12)NC(=O)CCn1nc(C)cc1C)C(C)C)C(=O)NCC(=O)N[C@@H](CC(C)C)C(=O)N[C@@H](CC(C)C)C(=O)N[C@@H](CCCNC(=N)N)C(N)=O` [Compound 136] (X19-WNLVRIGLLR-NH2): not below 50 µM and 9 µM. Regarding `CC[C@H](C)[C@H](NC(=O)[C@H](CCCNC(=N)N)NC(=O)[C@@H](NC(=O)[C@H](CC(C)C)NC(=O)[C@H](CC(N)=O)NC(=O)[C@H](Cc1c[nH]c2ccccc12)NC(=O)CCN1CCOCC1)C(C)C)C(=O)NCC(=O)N[C@@H](CC(C)C)C(=O)N[C@@H](CC(C)C)C(=O)N[C@@H](CCCNC(=N)N)C(N)=O` [Compound 137] (X32-WNLVRIGLLR-NH2), the IC50 in experiment [2] is not below 50 µM; in experiment [1] (Table 8E, additional compounds), 6.7 µM. The matching figures for `CC[C@H](C)[C@H](NC(=O)[C@H](CCCNC(=N)N)NC(=O)[C@@H](NC(=O)[C@H](CC(C)C)NC(=O)[C@H](CC(N)=O)NC(=O)[C@H](Cc1c[nH]c2ccccc12)NC(=O)CCc1cccnc1)C(C)C)C(=O)NCC(=O)N[C@@H](CC(C)C)C(=O)N[C@@H](CC(C)C)C(=O)N[C@@H](CCCNC(=N)N)C(N)=O` [Compound 138] ({Propanoyl(3-(3-pyridyl))}-WNLVRIGLLR-NH2): 48 µM and 4.9 µM. The matching figures for `CC[C@H](C)[C@H](NC(=O)[C@H](CCCNC(=N)N)NC(=O)[C@@H](NC(=O)[C@H](CC(C)C)NC(=O)[C@H](CC(N)=O)NC(=O)[C@H](Cc1c[nH]c2ccccc12)NC(=O)CC1CCS(=O)(=O)C1)C(C)C)C(=O)NCC(=O)N[C@@H](CC(C)C)C(=O)N[C@@H](CC(C)C)C(=O)N[C@@H](CCCNC(=N)N)C(N)=O` (stereo partly shown) [Compound 139] (X38-WNLVRIGLLR-NH2): not below 50 µM and 19 µM. The matching figures for `CC[C@H](C)[C@H](NC(=O)[C@H](CCCNC(=N)N)NC(=O)[C@@H](NC(=O)[C@H](CC(C)C)NC(=O)[C@H](CC(N)=O)NC(=O)[C@H](Cc1c[nH]c2ccccc12)NC(=O)CCN1CCN(C)CC1)C(C)C)C(=O)NCC(=O)N[C@@H](CC(C)C)C(=O)N[C@@H](CC(C)C)C(=O)N[C@@H](CCCNC(=N)N)C(N)=O` [Compound 140] (X33-WNLVRIGLLR-NH2): not below 50 µM and 26 µM. `CC[C@H](C)[C@H](NC(=O)[C@H](CCCNC(=N)N)NC(=O)[C@@H](NC(=O)[C@H](CC(C)C)NC(=O)[C@H](CC(N)=O)NC(=O)[C@H](Cc1c[nH]c2ccccc12)NC(=O)CCNC(N)=O)C(C)C)C(=O)NCC(=O)N[C@@H](CC(C)C)C(=O)N[C@@H](CC(C)C)C(=O)N[C@@H](CCCNC(=N)N)C(N)=O` [Compound 141] (X23-WNLVRIGLLR-NH2): the IC50 in experiment [2] is not below 50 µM; in experiment [1] (Table 8E, additional compounds), 36 µM.

On to `CC[C@H](C)[C@H](NC(=O)[C@H](CCCNC(=N)N)NC(=O)[C@@H](NC(=O)[C@H](CC(C)C)NC(=O)[C@H](CC(N)=O)NC(=O)[C@H](Cc1c[nH]c2ccccc12)NC(=O)CCn1cncn1)C(C)C)C(=O)NCC(=O)N[C@@H](CC(C)C)C(=O)N[C@@H](CC(C)C)C(=O)N[C@@H](CCCNC(=N)N)C(N)=O` [Compound 142] (X41-WNLVRIGLLR-NH2), for which the IC50 was not below 50 µM in experiment [2] and 15 µM in experiment [1] (Table 8E, additional compounds). In the case of `CC[C@H](C)[C@H](NC(=O)[C@H](CCCCNC(=N)N)NC(=O)[C@@H](NC(=O)[C@H](CC(C)C)NC(=O)[C@H](CC(N)=O)NC(=O)[C@H](Cc1c[nH]c2ccccc12)NC(=O)[C@@H]1C[C@@H]1c1cccnc1)C(C)C)C(=O)NCC(=O)N[C@@H](CC(C)C)C(=O)N[C@@H](CC(C)C)C(=O)N[C@@H](CCCNC(=N)N)C(N)=O` [Compound 221] (X21-WNLV[hArg]IGLLR-NH2), in experiment [2], the IC50 was 9.5 µM.
